Data reported in patent US7241797B2, “Method of increasing milk production” (University of Cincinnati, priority 2002, dated 2007).

Assays:
[1] = tested on: cultured mammospheres; assay: Morphology and morphometry of cultured mammospheres treated with serotonergic agents; type: cell-based, mouse; details: for Mammosphere morphology (qualitative): 1 μg·ml−1, replenished each day, 7-day incubation
Protocol: Qualitative comparison of typical mammospheres in cultures treated with (a) control; (b) 5-HT; (c) methysergide; (d) PCPA. Each of the agents was added to the medium at a concentration of 1 μg·ml^−1 and replenished each day during a 7-day incubation. (e) histogram depicting the median areas (in arbitrary units) of mammospheres sorted by size (n=350, 2 replicate experiments) of control- and methysergide-treated cultures.
In addition to the effects on gene expression shown above, perturbing 5-HT signaling caused morphological changes in mammosphere cultures. Under control conditions the mammospheres were comprised of a boundary layer surrounding an interior lumenal space (FIG. 5a). Qualitatively, mammospheres treated with different serotonergic agents had markedly different structures. […] Those treated with PCPA were very distinctive because the boundary layer was consistently thin, and, there was a very high contrast between the dark boundary and light central space.
We performed a morphometric comparison of control and methysergide-treated mammospheres employing a Macintosh computer using the public domain NIH Image program (developed at the U.S. National Institutes of Health and available on the Internet at http://rsb.info.nih.gov/nih-image/). Threshold was adjusted to automatically outline the mammospheres, and the organoids were sorted into a frequency distribution based on particle sizes. The median size of the methysergide-treated mammospheres was about 40% larger than the control mammospheres (p<0.01; Mann-Whitney U-test; FIG. 5e).
(§1) Primary mouse mammary epithelium was prepared from nulliparous mice by enzymatic digestion and differential trypsinization, modifying the method of Imagawa (Pedchenko, V. K. & Imagawa, W. T. Mammogenic hormones differentially modulate keratinocyte growth factor (KGF)-induced proliferation and KGF receptor expression in cultured mouse mammary gland epithelium. Endocrinology 139,2519-2526 (1998)). Enriched epithelial cells (2×10^5 cells per well) were plated in basement membrane (Matrigel, 0.5 ml/well, BD Biosciences) reconstituted in a 12-well plate so that they formed mammospheres. They were pre-incubated for seven days, and treated with ovine PRL (1 μg/ml) for 2 days. The cell culture experiments were replicated 2-3 times in all cases.

[2] = tested on: WAP gene expression in cultured mammospheres; assay: Milk protein gene expression (RT-PCR) in mammosphere cultures treated with serotonergic agents; type: cell-based, mouse; details: cells cultured in 1% fetal serum, WAP constitutively expressed at a low level
Protocol: Primary mouse mammary cultures were treated with PRL, methysergide (Methy.), or 5-HT as noted (+). RT-PCR products for various genes expressed in the mammary gland are shown by the labels at the left margin.
We tested whether 5-HT might have an autocrine/paracrine effect first by examining the expression of various genes in mammosphere cultures (FIG. 4), and then by morphometry (FIG. 5). Using a broad-spectrum 5-HT receptor antagonist methysergide, in combination with PRL, we observed that the expression levels of several mammary gland genes, including whey acidic protein (WAP), glycosylated cell adhesion molecule-1 (GlyCAM-1) and […]. The effects of both 5-HT and methysergide (agonist and antagonist) were tested using cells cultured in 1% fetal serum, wherein the WAP gene is constitutively expressed at a low level. Under these conditions 5-HT suppressed WAP, and methysergide induced WAP.
Primary mouse mammary epithelium was prepared from nulliparous mice by enzymatic digestion and differential trypsinization, modifying the method of Imagawa (Pedchenko, V. K. & Imagawa, W. T. Mammogenic hormones differentially modulate keratinocyte growth factor (KGF)-induced proliferation and KGF receptor expression in cultured mouse mammary gland epithelium. Endocrinology 139,2519-2526 (1998)). […]

[3] = tested on: lactating dams (mice); assay: Milk yield of nursing dams given carbidopa injections (nursing-related weight loss as index of milk yield); type: in vivo
Protocol: Nursing dams were given 4 injections of carbidopa (1 mg/kg body weight) at 12 h intervals (or control vehicle). After the final injection the pups were removed from the dam for 4 h. At the end of 4 h the dams were weighed and reunited with the pups to nurse for 1 h. After the nursing interval the dams were again weighed and the nursing-related weight losses were analyzed as an index of milk yield (Table 1). The litters of lactating dams (mice) were adjusted to 8 pups on day 1 postpartum. Carbidopa (1 mg/kg in 45% hydroxypropyl-β-cyclodextrin) or control vehicle were injected at approximately 12 h intervals beginning in the evening of postpartum day 3. After 4 injections (morning of day 5) pups were separated from the dams for 4 h. At the end of separation interval, the dams were injected with oxytocin (0.2U) and both the dams and their litters and were weighed. The litters were reunited with the dams for a 1 h nursing interval. The weights of the dams were measured after nursing and the differences in the weights of the dams before and after nursing are reported as milk yield. The percent increases with carbidopa-treatment are shown for statistically significant variables. […] Numbers of animals in treatment groups are in parentheses.

[4] = tested on: TPH mRNA in primary mouse mammary epithelial organoids; assay: TPH mRNA induction in primary cultures of mammary epithelial organoids; type: cell-based
Protocol: (b) TPH induction by milk stasis. Contralateral #3 glands were either open and suckled (+) or sealed with cyanoacrylate glue and unsuckled (−). RT-PCR was performed for TPH and glyceraldehyde-phosphate-dehydrogenase (GPDH), as shown.
(§2) Having established that mammary gland TPH expression was induced in vivo we studied TPH induction in primary cultures of mammary epithelial organoids. These organoids, sometimes referred to as “mammospheres,” secrete milk proteins, fluids and ions vectorially into a closed central lumen when cultured with lactogenic hormones. TPH increased slowly for at least 48 h following addition of PRL to the medium, and the optimum PRL dose was 1 μg/ml (approximately 20 nM) (FIG. 2a). […] First, the time course of TPH mRNA induction was much slower that other genes known to be directly regulated by PRL. Secondly, the in vitro induction was blocked by cycloheximide; and thirdly, the TPH promoter was not induced by PRL in reporter gene assays (unpublished results).
as §1

[5] = tested on: TPH promoter; assay: TPH promoter reporter gene assays; type: cell-based; details: unpublished results
Protocol: as §2

[6] = carbidopa 1 mg/kg, 4 injections

Molecule: N[C@@H](Cc1ccc(Cl)cc1)C(=O)O (racemic) [PCPA, p-chloro-phenylalanine]
- Mammosphere morphology (qualitative) [1]: easily visible central lumena

Molecule: NCCc1c[nH]c2ccc(O)cc12 [5-HT, 5-hydroxytryptamine]
- Effect on WAP gene expression [2]: suppressed
- Mammosphere size vs controls (qualitative) ([1]; 1 μg·ml−1, 7-day incubation, no quantitative morphometry): smaller than the controls
- Mammosphere morphology (qualitative) [1]: either filled or collapsed, with no obvious lumen

Molecule: C[C@@](Cc1ccc(O)c(O)c1)(NN)C(=O)O [Carbidopa, S-(−)-α-hydrazino-3,4-dihydroxy-2-methylbenzenepropanoic acid]
- Percent increase in litter weight relative to dam weight with carbidopa treatment vs vehicle control [3, 6]: >8.1%
- Percent increase in milk yield with carbidopa treatment vs vehicle control [3, 6]: >16.7%
- Milk Yield (difference in dam weight before and after 1 h nursing) ([3]; carbidopa 1 mg/kg, 4 injections at 12 h intervals, 4 h separation, 1 h nursing, mean ± s.e.m.): 2.1 ± 0.1 g
- Percent increase in litter (pup) weight with carbidopa treatment vs vehicle control ([3]; carbidopa 1 mg/kg, 4 injections, absolute basis): >11.6%
- Litter/Dam (litter weight relative to dam weight) ([3]; carbidopa 1 mg/kg, 4 injections, mean ± s.e.m.): 0.93 ± 0.03
- Litter Weight ([3]; litters of 8 pups, carbidopa 1 mg/kg to dam, 4 injections, mean ± s.e.m.): 36.5 ± 1.8 g

Molecule: C[C@@H]1C[C@@H]([C@H](O)CC2CC(=O)NC(=O)C2)C(=O)[C@@H](C)C1 [cycloheximide]
- Effect on in vitro induction of TPH by PRL [4]: blocked

Molecule: CC[C@@H](CO)NC(=O)[C@@H]1C=C2c3cccc4c3c(cn4C)C[C@H]2N(C)C1 [methysergide]
- Effect on WAP gene expression [2]: induced
- Median size of mammospheres, increase vs control mammospheres ([1]; 1 μg·ml−1, 7-day incubation, p<0.01, Mann-Whitney U-test): about 40%
- Mammosphere morphology (qualitative) [1]: easily visible central lumena

B1: PRL: prolactin, lactogenic hormone; ovine PRL added to the mammosphere cultures (protein, UniProt P01240 31-229, looked up)
Prolactin: TPVCPNGPGNCQVSLRDLFDRAVMVSHYIHNLSSEMFNEFDKRYAQGKGFITMALNSCHTSSLPTPEDKEQAQQTHHEVLMSLILGLLRSWNDPLYHLVTEVRGMKGVPDAILSRAIEIEEENKRLLEGMEMIFGQVIPGAKETEPYPVWSGLPSLQTKDEDARHSAFYNLLHCLRRDSSKIDTYLKLLNCRIIYNNNC
- Induction of the TPH promoter [5]: not induced
- Optimum dose for TPH mRNA induction [4]: 1 µg/mL
- Optimum dose for TPH mRNA induction (molar) [4]: approximately 20 nM
